Assay results from paper PMC7350133 (Heliyon, 2020).
Like-named read-outs stand apart in the source and are kept apart here.

Legend:
[1] = system: yeast alpha glucosidase enzyme; details: ref Gong et al., 2017, Peng et al., 2016, Rouzbehan et al.; cited from earlier work
[2] = DPPH free radical scavenging assay; details: mean ± SD (n = 3)
[3] = ABTS free radical scavenging assay; details: mean ± SD (n = 3)
[4] = biological target: alpha glucosidase; details: cited from earlier work

C[C@H]1O[C@H](O[C@H]2[C@H](O)[C@@H](O)[C@@H](O[C@H]3[C@H](O)[C@@H](O)C(O)O[C@@H]3CO)O[C@@H]2CO)[C@H](O)[C@@H](O)[C@@H]1N[C@H]1C=C(CO)[C@@H](O)[C@H](O)[C@H]1O (stereo partly shown) [Acarbose, acarbose]
type of inhibition [1]: competitive

O=C1O[C@H]([C@@H](O)CO)C(O)=C1O [Ascorbic acid]
Antioxidant activity (IC50 in μg/mL) DPPH Assay [2]: 5.1 ± 0.1 µg/mL | Antioxidant activity (IC50 in μg/mL) ABTS Assay [3]: 3.9 ± 0.2 µg/mL

COc1ccc([C@@H]2CC(=O)c3c(O)cc(O)cc3O2)cc1O [hesperetin]
type of inhibition [1]: mixed type

O=c1c(O)c(-c2ccc(O)cc2)oc2cc(O)cc(O)c12 [kaempferol]
type of inhibition [1]: mixed type

O=c1c2cc(O)c(O)cc2oc2cc(O)cc(O)c12 [norathyriol]
AGI IC50 ([4]; ref Gu et al., 2019): 4.22 ± 0.19 µg/mL

C/C=C(\C)CC/C=C(\C)C(=O)OCC(C)(C)CC1=C(O)C(=O)c2ccccc2C1=O [rhinacanthin C]
AGI IC50 ([4]; ref Shah et al., 2017): 22.6 ± 0.6 µg/mL
